The source of these data is patent US8404707B2, “Imidazo [1, 2-a] pyrrolo [3, 2-c] pyridine compounds useful as pestivirus inhibitors” (Universite d'Auvergne Clermont 1, priority 2006, dated 2013).

Data set [1] concerns BVDV-1 (strain PE515). As to the kind of experiment: Anti-BVDV assay (protection of MDBK cell monolayer from virus-induced cytopathic effect, MTS readout). It counts as cell-based, Bovine Viral Diarrhea virus. The settings on record: for EC50: Bovine viral diarrhea virus isolates and strains, MDBK, 120 h, BVDV-1 in MDBK cells, 5 days incubation, concentration that protects 50% of the cell monolayer from virus-induced cytopathic effect; for SI: Selectivity index (ratio of CC50 to EC50): CC50 (MDBK cells) / EC50 (BVDV). As to the method:
(§1) Madin-Darbey Bovine Kidney (MDBK) cells were maintained in Dulbecco's modified Eagle medium (DMEM) supplemented with BVDV-free 5% fetal calf serum (DMEME-FCS) at 37° C. in a humidified, 5% CO2 atmosphere. BVDV-1 (strain PE515) was used to assess the antiviral activity in MDBK cells.
Ninety-six-well cell culture plates were seeded with MDBK cells in DMEM-FCS so that cells reached 24 hr later confluency. Then medium was removed and serial 5-fold dilutions of the test compounds were added in a total volume of 100 μl, after which the virus inoculum (100 μl) was added to each well. […] Uninfected cells and cells receiving virus without compound were included in each assay plate. After 5 days, medium was removed and 90 μl of DMEM-FCS and 10 μl of MTS/PMS solution (Promega) was added to each well. Following a 2 hr incubation period at 37° C. the optical density of the wells was read at 498 nm in a microplate reader.
Background: Damage to the host cells serves as the signal in cytopathic effect assays.

Data set [2] can be described thus: Determination of cytostatic effect on MDBK cells (MTS method). It counts as cell-based, Bovine. The conditions noted are these: bovine, MDBK cells (exponentially growing), 3 days incubation, 50% cytostatic concentration. As to the method: as §1
(§2) The effect of the drugs on exponentially growing MDBK cells was assessed as follows. Cells were seeded at a density of 5000 cell/well in 96 well plates in MEM medium (Gibco) supplemented with 10% fetal calf serum, 2 mM L-glutamine (Life Technologies) and bicarbonate (Life Technologies). Cells, were cultured for 24 hr after which serial dilutions of the test compounds were added. Cultures were then again further incubated for 3 days after which the effect on cell growth was quantified by means of the MTS method (Promega). The concentration that results in 50% inhibition of cell growth is defined as the 50% cytostatic concentration (CC50)
Background: Formazan colour is commonly taken as a measure of viable cells.

Data set [3] has as its system MDBK cells. As to the kind of experiment: Determination of cytostatic effect on MDBK cells (MTS method). It counts as cell-based, Bovine. The conditions noted are these: exponentially growing MDBK cells, 3 days incubation; 50% cytostatic concentration. As to the method:
as §1, §2

≈ marks a conversion by molar mass, not a printed value. Read-outs that look alike come from different tables or passages of the source.

For `CC1=Nc2c3cc(-c4ccc(F)cc4)nc-3ccn2C1` [Compound 27b, 8-(4-fluorophenyl)-2-methylimidazo[1,2-a]pyrrolo[3,2-c]pyridine], the EC50 in data set [1] (read-out: EC50) worked out at 1.27 µg/mL (≈ 4.79 µM). The “SI: Selectivity index (ratio of CC50 to EC50)” value in data set [1] is “±37”. The same compound returned a CC50 at 3 days in data set [2] of 47.5 µg/mL (≈ 179 µM).
For `CCOC(=O)c1cc2c3n(ccc-2n1)CC(C(C)C)=N3` [Compound 7f, Ethyl 2-isopropylimidazo[1,2-a]pyrrolo[3,2-c]pyridine-8-carboxylate], the melting point was in the range of 207 to 209 °C. Further, the EC50 in data set [1] (read-out: EC50) was 0.6 µg/mL (≈ 2.21 µM). In data set [1], the “SI: Selectivity index (ratio of CC50 to EC50)” value is listed as “±36”. The compound also came in with a CC50 at 3 days in data set [2] of 22 µg/mL (≈ 81.1 µM).
Turning to `CCOC(=O)n1c(-c2ccc(OC)cc2)cc2c1ccn1cc(C)nc21`, the melting point lay in the range of 158 to 159 °C.
Turning to `CCCCc1cc2c3n(ccc-2n1)CC(C)=N3`, the melting point came out at 162 °C.
Regarding `CCOC(=O)c1cc2c3n(ccc-2n1)CC(c1cccc(OC)c1)=N3`, the melting point lay in the range of 198 to 200 °C.
As to `CC1=Nc2c3cc(C(=O)O)nc-3ccn2C1` [Compound 15, 2-Methylimidazo[1,2-a]pyrrolo[3,2-c]pyridine-8-carboxylic acid], the EC50 in data set [1] (read-out: EC50) amounted to 0.5 µg/mL (≈ 2.32 µM). The cytotoxic concentration (CC50) at 3 days in data set [2] was above 100 µg/mL. This compound registered a CC50 in data set [3] above 100 µg/mL.
With `CCOC(=O)c1cc2c3n(ccc-2n1)CC(Br)=N3` [Compound 7i, Ethyl 2-bromoimidazo[1,2-a]pyrrolo[3,2-c]pyridine-8-carboxylate], the EC50 in data set [1] (read-out: EC50) was determined as 1.5 µg/mL (≈ 4.87 µM). The “SI: Selectivity index (ratio of CC50 to EC50)” value in data set [1] was above 33. This compound yielded a CC50 at 3 days in data set [2] above 50 µg/mL.
Consider `CCOC(=O)c1cc2c3n(ccc-2n1)CC(CO)=N3` [Compound 11, Ethyl 2-hydroxymethylimidazo[1,2-a]pyrrolo[3,2-c]pyridine-8-carboxylate], for which the melting point is 227 to 229 °C. Further, the EC50 in data set [1] (read-out: EC50) turned out to be 9 µg/mL (≈ 34.7 µM). Also, the “SI: Selectivity index (ratio of CC50 to EC50)” value in data set [1] is “±10”. In addition, the CC50 at 3 days in data set [2] is 87 µg/mL (≈ 336 µM).
In turn, `CCOC(=O)c1cc2c3n(ccc-2n1)CC(CCl)=N3` had a melting point of 270 to 272 °C.
Same read-out and setting: in the case of `COc1ccc(-c2cc3c4n(ccc-3n2)CC(C)=N4)cc1` it was 168 °C.
For `CCOC(=O)c1cc2c3n(ccc-2n1)CC(C(OCC)OCC)=N3` [Compound 7h, Ethyl 2-diethoxymethylimidazo[1,2-a]pyrrolo[3,2-c]pyridine-8-carboxylate], the melting point was in the range of 242 to 244 °C. Also, in data set [1] (read-out: EC50), the EC50 came to 3 µg/mL (≈ 9.05 µM). Moreover, the “SI: Selectivity index (ratio of CC50 to EC50)” value in data set [1] is “±7”. In data set [2], this compound displayed a CC50 at 3 days of 22 µg/mL (≈ 66.4 µM).
For `CCOC(=O)n1c(-c2ccc(F)cc2)cc2c1ccn1cc(C)nc21` [Compound 26b, Ethyl 8-(4-fluorophenyl)-2-methylimidazo[1,2-a]pyrrolo[3,2-c]pyridine-7-carboxylate], in that order: 175 °C, 1.25 µg/mL (≈ 3.71 µM), “±6” and 7.9 µg/mL (≈ 23.4 µM).
Consider `CCOC(=O)c1cc2c3n(ccc-2n1)CC(C(F)(F)F)=N3` [Compound 7e, Ethyl 2-trifluoromethylimidazo[1,2-a]pyrrolo[3,2-c]pyridine-8-carboxylate], for which the melting point is 230 to 231 °C. Moreover, in data set [1], the EC50 was found to be 1.5 µg/mL (≈ 5.05 µM) and the “SI: Selectivity index (ratio of CC50 to EC50)” value is recorded as “±33”. The compound also displayed a CC50 at 3 days in data set [2] above 50 µg/mL.
For `CCOC(=O)c1cc2c(ccn3cc(CN(C)C)nc23)[nH]1` [Compound 9, Ethyl 2-N,N dimethylaminomethylimidazo[1,2-a]pyrrolo[3,2-c]pyridine-8-carboxylate], a half-maximal response in data set [1] (EC50) required 3 µg/mL (≈ 10.5 µM).
Compound `CCOC(=O)c1cc2c3n(ccc-2n1)CC(C)=N3` [Compound 7b, Ethyl 2-methylimidazo[1,2-a]pyrrolo[3,2-c]pyridine-8-carboxylate] showed a melting point of 201 to 203 °C. Besides, the EC50 in data set [1] (read-out: EC50) worked out at 0.8 µg/mL (≈ 3.29 µM). Also, the “SI: Selectivity index (ratio of CC50 to EC50)” value in data set [1] is “±81”. In addition, half-maximal cytotoxicity in data set [2] (CC50 at 3 days) was put at 65 µg/mL (≈ 267 µM).

One may read the EC50 as the concentration at which the effect is half-maximal. For orientation: CC50 means the concentration at which the toxic effect on the cells reaches its halfway point. A low value points to harm at low concentration. As a reminder, the melting point is the temperature of the solid-liquid transition.
